From patent publication US8962631B2 (Vertex Pharmaceuticals Incorporated, priority 2010, dated 2015) come the findings set out here.

A value given as a limit tells only on which side of the number the result lay.

T1 sequence (Q13535 whole entry): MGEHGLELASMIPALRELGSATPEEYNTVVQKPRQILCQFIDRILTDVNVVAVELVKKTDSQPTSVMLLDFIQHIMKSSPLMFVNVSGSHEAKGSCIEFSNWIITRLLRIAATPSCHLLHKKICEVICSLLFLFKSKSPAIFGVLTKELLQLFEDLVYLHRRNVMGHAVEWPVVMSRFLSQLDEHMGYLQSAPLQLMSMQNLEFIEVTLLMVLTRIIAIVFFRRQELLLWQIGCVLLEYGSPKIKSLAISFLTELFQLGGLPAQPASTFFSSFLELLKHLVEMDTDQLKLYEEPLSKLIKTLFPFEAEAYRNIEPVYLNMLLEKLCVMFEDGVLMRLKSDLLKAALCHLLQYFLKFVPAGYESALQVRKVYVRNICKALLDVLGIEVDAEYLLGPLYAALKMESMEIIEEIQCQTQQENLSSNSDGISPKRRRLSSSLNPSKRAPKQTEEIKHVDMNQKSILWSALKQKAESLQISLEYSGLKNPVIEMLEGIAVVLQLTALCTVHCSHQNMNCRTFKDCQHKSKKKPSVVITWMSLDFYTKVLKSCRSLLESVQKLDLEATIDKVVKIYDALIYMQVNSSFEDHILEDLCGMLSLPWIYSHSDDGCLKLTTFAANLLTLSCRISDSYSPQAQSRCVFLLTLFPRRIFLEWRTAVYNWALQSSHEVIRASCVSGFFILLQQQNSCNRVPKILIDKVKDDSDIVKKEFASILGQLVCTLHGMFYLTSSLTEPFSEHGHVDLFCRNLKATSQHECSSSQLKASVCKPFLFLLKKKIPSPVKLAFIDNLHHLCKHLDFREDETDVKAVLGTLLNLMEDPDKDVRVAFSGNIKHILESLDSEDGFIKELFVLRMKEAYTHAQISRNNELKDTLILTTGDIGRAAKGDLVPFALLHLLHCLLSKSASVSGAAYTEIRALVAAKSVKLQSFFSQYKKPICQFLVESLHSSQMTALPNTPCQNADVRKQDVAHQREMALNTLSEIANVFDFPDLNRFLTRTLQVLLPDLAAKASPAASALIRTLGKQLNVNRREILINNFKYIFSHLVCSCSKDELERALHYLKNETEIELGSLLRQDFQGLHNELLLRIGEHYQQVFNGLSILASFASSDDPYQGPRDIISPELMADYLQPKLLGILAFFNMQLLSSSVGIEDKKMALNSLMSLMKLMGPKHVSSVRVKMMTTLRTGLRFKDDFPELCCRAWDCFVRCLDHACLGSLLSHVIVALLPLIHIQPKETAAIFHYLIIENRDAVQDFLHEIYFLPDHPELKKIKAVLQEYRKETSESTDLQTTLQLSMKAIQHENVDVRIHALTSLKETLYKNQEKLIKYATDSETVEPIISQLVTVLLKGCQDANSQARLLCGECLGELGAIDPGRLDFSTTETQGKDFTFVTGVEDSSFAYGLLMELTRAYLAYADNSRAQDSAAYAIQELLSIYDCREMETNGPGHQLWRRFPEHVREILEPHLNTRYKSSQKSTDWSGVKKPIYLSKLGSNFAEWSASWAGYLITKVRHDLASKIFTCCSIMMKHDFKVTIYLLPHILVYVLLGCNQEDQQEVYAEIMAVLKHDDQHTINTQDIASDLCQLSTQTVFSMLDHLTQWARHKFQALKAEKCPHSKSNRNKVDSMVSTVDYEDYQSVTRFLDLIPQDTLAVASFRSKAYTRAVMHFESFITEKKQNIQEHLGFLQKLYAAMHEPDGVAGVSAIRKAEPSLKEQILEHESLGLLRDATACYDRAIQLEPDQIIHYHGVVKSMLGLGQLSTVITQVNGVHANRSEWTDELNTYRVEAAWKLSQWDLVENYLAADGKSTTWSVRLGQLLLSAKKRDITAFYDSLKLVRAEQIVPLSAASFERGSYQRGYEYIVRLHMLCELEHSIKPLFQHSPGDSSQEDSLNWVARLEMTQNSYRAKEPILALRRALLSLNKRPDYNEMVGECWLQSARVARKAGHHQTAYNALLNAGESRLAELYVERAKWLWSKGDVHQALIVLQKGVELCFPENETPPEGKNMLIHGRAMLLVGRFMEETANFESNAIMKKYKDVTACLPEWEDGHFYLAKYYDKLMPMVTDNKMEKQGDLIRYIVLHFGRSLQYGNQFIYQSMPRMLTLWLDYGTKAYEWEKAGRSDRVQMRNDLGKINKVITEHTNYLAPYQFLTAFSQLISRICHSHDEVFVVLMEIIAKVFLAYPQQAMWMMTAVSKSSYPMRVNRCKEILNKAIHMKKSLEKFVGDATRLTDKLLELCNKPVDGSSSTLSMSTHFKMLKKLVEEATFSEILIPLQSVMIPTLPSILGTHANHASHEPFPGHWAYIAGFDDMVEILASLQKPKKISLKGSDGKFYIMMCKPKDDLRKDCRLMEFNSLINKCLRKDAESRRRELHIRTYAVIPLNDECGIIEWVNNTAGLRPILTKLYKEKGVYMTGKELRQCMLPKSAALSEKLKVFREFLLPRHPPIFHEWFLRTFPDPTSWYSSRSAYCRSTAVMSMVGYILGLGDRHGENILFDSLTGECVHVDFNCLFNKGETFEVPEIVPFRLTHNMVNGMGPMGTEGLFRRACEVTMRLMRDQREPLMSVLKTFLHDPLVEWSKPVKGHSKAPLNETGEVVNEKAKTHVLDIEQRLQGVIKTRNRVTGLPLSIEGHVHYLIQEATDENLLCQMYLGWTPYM

One experiment addresses T1, full-length ATR (Homo sapiens, UniProt Q13535).
T1 construct: Assays were carried out at 25° C. in the presence of 5 nM full-length ATR
As to the kind of experiment: ATR Inhibition Assay (radioactive-phosphate incorporation). Format: biochemical. The following applies: Ki(app); 10 μM ATP, 800 μM target peptide, 5 nM full-length ATR, 25° C. As to the method:
Compounds were screened for their ability to inhibit ATR kinase using a radioactive-phosphate incorporation assay. Assays were carried out in a mixture of 50 mM Tris/HCl (pH 7.5), 10 mM MgCl2 and 1 mM DTT. Final substrate concentrations were 10 μM [γ-33P]ATP (3 mCi 33P ATP/mmol ATP, Perkin Elmer) and 800 μM target peptide ([…] (SEQ. ID NO: 1)).
Assays were carried out at 25° C. in the presence of 5 nM full-length ATR. An assay stock buffer solution was prepared containing all of the reagents listed above, with the exception of ATP and the test compound of interest. 13.5 μL of the stock solution was placed in a 96 well plate followed by addition of 2 μL of DMSO stock containing serial dilutions of the test compound (typically starting from a final concentration of 15 μM with 3-fold serial dilutions) in duplicate (final DMSO concentration 7%). The plate was pre-incubated for 10 minutes at 25° C. and the reaction initiated by addition of 15 μL [γ-33P]ATP (final concentration 10 μM).
The reaction was stopped after 24 hours by the addition of 30 μL 0.1M phosphoric acid containing 2 mM ATP. A multiscreen phosphocellulose filter 96-well plate (Millipore, Cat no. MAPHN0B50) was pretreated with 100 μL 0.2M phosphoric acid prior to the addition of 45 μL of the stopped assay mixture. The plate was washed with […] 0.2M phosphoric acid. After drying, 100 μL Optiphase ‘SuperMix’ liquid scintillation cocktail (Perkin Elmer) was added to the well prior to scintillation counting (1450 Microbeta Liquid Scintillation Counter, Wallac).
After removing mean background values for all of the data points, Ki(app) data were calculated from non-linear regression analysis of the initial rate data using the Prism software package (GraphPad Prism version 3.0cx for Macintosh, GraphPad Software, San Diego Calif., USA).
On to `Cc1ccc2nc(-c3nc(C(=O)NCC#N)cnc3N)[nH]c2c1` [II-48, 5-Amino-N-(cyanomethyl)-6-(6-methyl-1H-benzimidazol-2-yl)pyrazine-2-carboxamide], for which the Ki is ≤ 0.5 µM.
With `Nc1ncc(Oc2cccnc2)nc1-c1nc2ccccc2[nH]1` [II-12, 3-(1H-Benzimidazol-2-yl)-5-(3-pyridyloxy)pyrazin-2-amine], the Ki lay in the range of 1 to 8 µM.
With `CC(C)(O)C#Cc1cnc(N)c(C(=O)Nc2ccccc2)n1` [II-81, 3-Amino-6-(3-hydroxy-3-methyl-but-1-ynyl)-N-phenyl-pyrazine-2-carboxamide], the Ki was in the range of 0.5 to 1 µM.
For the compound `CC(=O)NCCOc1cnc(N)c(-c2nc3ccc(C)cc3[nH]2)n1` [II-34, N-[2-[5-Amino-6-(6-methyl-1H-benzimidazol-2-yl)pyrazin-2-yl]oxyethyl]acetamide], the Ki is 1 to 8 µM.
On to `Cc1ccc2nc(-c3nc(C(=O)NCCN4CCCC4)cnc3N)[nH]c2c1` [II-51, 5-Amino-6-(6-methyl-1H-benzimidazol-2-yl)-N-(2-pyrrolidin-1-ylethyl)pyrazine-2-carboxamide], for which the Ki fell in the range of 0.5 to 1 µM.
As for `Cc1ccc2nc(-c3nc(C#CCNS(C)(=O)=O)cnc3N)[nH]c2c1` [II-87, N-[3-[5-Amino-6-(6-methyl-1H-benzimidazol-2-yl)pyrazin-2-yl]prop-2-ynyl]methanesulfonamide], the Ki was in the range of 0.5 to 1 µM.
For the compound `N#CCNC(=O)c1cnc(N)c(-c2nc3ccccc3[nH]2)n1` [II-75, 5-Amino-6-(1H-benzimidazol-2-yl)-N-(cyanomethyl)pyrazine-2-carboxamide], the Ki was ≤ 0.5 µM.
Take `Nc1ncc(Oc2ccccc2)nc1C(=O)Nc1ccccc1` [II-17, 3-Amino-6-phenoxy-N-phenyl-pyrazine-2-carboxamide]: the Ki is 0.5 to 1 µM.
On to `Cc1ccc2nc(-c3nc(Oc4ccc(O)cc4)cnc3N)[nH]c2c1` [II-24, 4-[5-Amino-6-(6-methyl-1H-benzimidazol-2-yl)pyrazin-2-yl]oxyphenol], for which the Ki was in the range of 1 to 8 µM.
Turning to `Cc1ccc2nc(-c3nc(C(=O)N[C@@H](C)c4ccccc4)cnc3N)[nH]c2c1` [II-59, 5-Amino-6-(6-methyl-1H-benzimidazol-2-yl)-N-[(1S)-1-phenylethyl]pyrazine-2-carboxamide], the Ki was in the range of 0.5 to 1 µM.
Consider `CC(=O)Nc1cnc(N)c(-c2nc3ccccc3[nH]2)n1` [II-91, N-[5-Amino-6-(1H-benzimidazol-2-yl)pyrazin-2-yl]acetamide], for which the Ki was ≤ 0.5 µM.
`Cc1ccc2nc(-c3nc(C(=O)NCC(C)O)cnc3N)[nH]c2c1` (stereo not drawn) [II-67, 5-Amino-N-(2-hydroxypropyl)-6-(6-methyl-1H-benzimidazol-2-yl)pyrazine-2-carboxamide]: the Ki fell in the range of 1 to 8 µM.
As for `C=CCNC(=O)c1cnc(N)c(-c2nc3ccc(C)cc3[nH]2)n1` [II-66, N-Allyl-5-amino-6-(6-methyl-1H-benzimidazol-2-yl)pyrazine-2-carboxamide], the Ki lay within 1 to 8 µM.
In the case of `Nc1ncc(O[C@@H]2CC[C@H](O)C2)nc1-c1nc2ccccc2[nH]1` (relative stereo) [II-35, cis-3-((5-Amino-6-(1H-benzo[d]imidazol-2-yl)pyrazin-2-yl)oxy)cyclopentanol], the Ki fell in the range of 1 to 8 µM.
On the same count and under the same terms, under `COc1ccccc1NC(=O)c1nc(Oc2ccccc2)cnc1N` [II-16, 3-Amino-N-(2-methoxyphenyl)-6-phenoxy-pyrazine-2-carboxamide] stands ≤ 0.5 µM; under `Cc1ccc2nc(-c3nc(C(=O)NCC(N)=O)cnc3N)[nH]c2c1` [II-50, 5-Amino-N-(2-amino-2-oxo-ethyl)-6-(6-methyl-1H-benzimidazol-2-yl)pyrazine-2-carboxamide], 1 to 8 µM.
In the case of `COc1cccc(Oc2cnc(N)c(-c3nc4ccccc4[nH]3)n2)c1` [II-15, 3-(1H-Benzimidazol-2-yl)-5-(3-methoxyphenoxy)pyrazin-2-amine], the Ki fell in the range of 0.5 to 1 µM.
For `CC(C)Oc1cnc(N)c(-c2nc3ccccc3[nH]2)n1` [II-13, 3-(1H-Benzimidazol-2-yl)-5-isopropoxy-pyrazin-2-amine], the Ki lay in the range of 1 to 8 µM.

The same experiment, now with this note: at 15 uM compound; read-out: percent inhibition against ATR.
For orientation: inhibition means the relative decrease from the control value, in per cent. In the case of `Cc1ccc2nc(-c3nc(C(=O)NC4CCCC4)cnc3N)[nH]c2c1` [II-72, 5-Amino-N-cyclopentyl-6-(6-methyl-1H-benzimidazol-2-yl)pyrazine-2-carboxamide], the inhibition at 15 µM was 15 to 24%.
`Cc1ccc2nc(-c3nc(C(=O)Nc4ccccc4)cnc3N)[nH]c2c1` [II-41, 5-Amino-6-(6-methyl-1H-benzimidazol-2-yl)-N-phenyl-pyrazine-2-carboxamide]: the inhibition at 15 µM lay within 25 to 45%.

The same experiment, now with this note: at 60 uM compound; read-out: percent inhibition of ATR.
On to `Cc1ccc2nc(-c3nc(Oc4cccc(Oc5ccccc5)c4)cnc3N)[nH]c2c1` [II-28, 3-(6-Methyl-1H-benzimidazol-2-yl)-5-(3-phenoxyphenoxy)pyrazin-2-amine], for which the inhibition at 60 µM was 10%.
